Patent publication US20140255392A1 (BAYER INTELLECTUAL PROPERTY GMBH, priority 2011, published 2014)

What follows are molecules tested against T1, human kinase Mps-1 (Homo sapiens, UniProt P33981) (assay: Mps-1 kinase assay (TR-FRET)). Details: N-terminally GST-tagged human full length recombinant Mps-1; 10 μM ATP; 1 μM peptide substrate; 60 min at 22° C.
T1 construct: N-terminally GST-tagged human full length recombinant Mps-1 kinase; GST (N); purchased Invitrogen, Karslruhe, Germany PV4071
T1 sequence (P33981 1-857): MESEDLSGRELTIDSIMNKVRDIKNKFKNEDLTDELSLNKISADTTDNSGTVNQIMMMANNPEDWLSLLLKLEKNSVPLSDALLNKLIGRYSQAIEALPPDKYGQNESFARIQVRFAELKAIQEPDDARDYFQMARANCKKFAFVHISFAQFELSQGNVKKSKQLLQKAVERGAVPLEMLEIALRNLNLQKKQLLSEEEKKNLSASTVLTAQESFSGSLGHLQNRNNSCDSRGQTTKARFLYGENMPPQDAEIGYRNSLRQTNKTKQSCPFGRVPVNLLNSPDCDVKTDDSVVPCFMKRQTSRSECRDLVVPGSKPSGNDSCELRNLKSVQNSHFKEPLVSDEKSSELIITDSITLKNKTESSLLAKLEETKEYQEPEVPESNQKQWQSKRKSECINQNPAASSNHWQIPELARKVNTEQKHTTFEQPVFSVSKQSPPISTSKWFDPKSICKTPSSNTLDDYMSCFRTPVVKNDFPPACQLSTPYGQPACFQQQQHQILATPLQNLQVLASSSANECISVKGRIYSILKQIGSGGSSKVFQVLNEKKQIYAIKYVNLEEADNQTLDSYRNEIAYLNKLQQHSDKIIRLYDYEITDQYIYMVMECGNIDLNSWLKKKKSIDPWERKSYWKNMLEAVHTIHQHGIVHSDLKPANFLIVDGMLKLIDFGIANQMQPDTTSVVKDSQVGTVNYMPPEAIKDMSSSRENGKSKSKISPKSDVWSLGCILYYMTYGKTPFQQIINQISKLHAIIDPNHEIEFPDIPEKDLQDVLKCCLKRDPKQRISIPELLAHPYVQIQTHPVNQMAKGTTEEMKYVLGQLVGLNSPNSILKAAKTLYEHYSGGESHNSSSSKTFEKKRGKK
Type: biochemical
Description: The human kinase Mps-1 phosphorylates a biotinylated substrate peptide. Detection of the phosphorylated product is achieved by time-resolved fluorescence resonance energy transfer (TR-FRET) from Europium-labelled anti-phospho-Serine/Threonine antibody as donor to streptavidin labelled with cross-linked allophycocyanin (SA-XLent) as acceptor. Compounds are tested for their inhibition of the kinase activity.
N-terminally GST-tagged human full length recombinant Mps-1 kinase (purchased from Invitrogen, Karslruhe, Germany, cat. no PV4071) was used. As substrate for the kinase reaction a biotinylated peptide of the amino-acid sequence […] (C-terminus in amide form, purchased from Biosynthan GmbH, Berlin) was used.
The concentration of Mps-1 in the assay was adjusted to the activity of the enzyme lot and was chosen appropriate to have the assay in the linear range, typical enzyme concentrations were in the range of about 1 nM (final conc. in the 5 μl assay volume).
The resulting mixture was incubated 1 h at 22° C. to allow the binding of the phosphorylated peptide to the anti-phospho(Ser/Thr)-Europium-antibody. Subsequently the amount of phosphorylated substrate was evaluated by measurement of the resonance energy transfer from the Europium-labelled anti-phospho(Ser/Thr) antibody to the Streptavidin-XLent.

Q: Which IC50 does the source give for `Cc1cc(-c2cnc3c(NCCC(F)(F)F)cc(Oc4cccc(OC(F)(F)F)c4)cn23)ccc1C(=O)NC1(C)CC1` [Example 76, 2-Methyl-N-(1-methylcyclopropyl)-4-{6-[3-(trifluoromethoxy)phenoxy]-8-[(3,3,3-trifluoropropyl)amino]imidazo[1,2-a]pyridin-3-yl}benzamide] here?
A: 105 nM

Q: How did the IC50 turn out when `COc1cccc(Oc2cc(NCCC(F)(F)F)c3ncc(-c4ccc(C(=O)NC5(C#N)CC5)c(C)c4)n3c2)c1` [Example 53, N-(1-cyanocyclopropyl)-4-{6-(3-methoxyphenoxy)-8-[(3,3,3-trifluoropropyl)amino]imidazo[1,2-a]pyridin-3-yl}-2-methylbenzamide] was run?
A: 19.5 nM

Q: `COCCNc1cc(C(=O)c2cc(F)ccc2O)cn2c(-c3ccc(C(=O)NC4CC4)c(C)c3)cnc12` [Example 174, N-cyclopropyl-4-{6-(5-fluoro-2-hydroxybenzoyl)-8-[(2-methoxyethyl)amino]imidazo[1,2-a]pyridin-3-yl}-2-methylbenzamide] was tested. Which IC50 did it give?
A: 816 nM

Q: With `CCNC(=O)c1ccc(-c2cnc3c(NCCC(F)(F)F)cc(CC)cn23)cc1C` [Example 101, N-ethyl-4-{6-ethyl-8-[(3,3,3-trifluoropropyl)amino]imidazo[1,2-a]pyridin-3-yl}-2-methylbenzamide] as the molecule, how does the IC50 read?
A: 123 nM

Q: With `Cc1cc(-c2cnc3c(NCCC(F)(F)F)cc(-c4ccccc4CO)cn23)ccc1C(=O)NC1CC1` [Example 2-1, N-cyclopropyl-4-{6-[2-(hydroxymethyl)phenyl]-8-[(3,3,3-trifluoropropyl)amino]imidazo[1,2-a]pyridin-3-yl}-2-methylbenzamide] as the molecule, how does the IC50 read?
A: 0.9 nM

Q: With `CCNC(=O)c1ccc(-c2cnc3c(NCCC(F)(F)F)cc(CCCO)cn23)cc1C` [Example 127, N-ethyl-4-{6-(3-hydroxypropyl)-8-[(3,3,3-trifluoropropyl)amino]imidazo[1,2-a]pyridin-3-yl}-2-methylbenzamide] as the molecule, how does the IC50 read?
A: 62.5 nM

Q: Which IC50 does the source give for `CNC(=O)c1ccc(-c2cnc3c(NCCC(F)(F)F)cc(Oc4cccc(O)c4)cn23)cc1C` [Example 139, 4-{6-(3-Hydroxyphenoxy)-8-[(3,3,3-trifluoropropyl)amino]imidazo[1,2-a]pyridin-3-yl}-N,2-dimethylbenzamide] here?
A: 1.1 nM

Q: `CCNC(=O)c1ccc(-c2cnc3c(NCCC(F)(F)F)cc(-c4ccccc4O)cn23)cc1C` [Example 134, N-ethyl-4-{6-(2-hydroxyphenyl)-8-[(3,3,3-trifluoropropyl)amino]imidazo[1,2-a]pyridin-3-yl}-2-methylbenzamide] was tested. Which IC50 did it give?
A: 13.7 nM

Q: How did the IC50 turn out when `CNC(=O)c1ccc(-c2cnc3c(NCCC(F)(F)F)cc(Oc4cccc(F)c4F)cn23)cc1C` [Example 72, 4-{6-(2,3-Difluorophenoxy)-8-[(3,3,3-trifluoropropyl)amino]imidazo[1,2-a]pyridin-3-yl}-N,2-dimethylbenzamide] was run?
A: 0.6 nM

Q: For `CCc1cc(NCCC(F)(F)F)c2ncc(-c3ccc(C(=O)NC)c(C)c3)n2c1` [Example 100, 4-{6-Ethyl-8-[(3,3,3-trifluoropropyl)amino]imidazo[1,2-a]pyridin-3-yl}-N,2-dimethylbenzamide], which IC50 is on record?
A: 106 nM

Q: With `C/C=C/c1cc(NCCC(F)(F)F)c2ncc(-c3ccc(C(=O)NC4(C)CC4)c(C)c3)n2c1` [Example 114, 2-Methyl-N-(1-methylcyclopropyl)-4-{6-[(1E)-prop-1-en-1-yl]-8-[(3,3,3-trifluoropropyl)amino]imidazo[1,2-a]pyridin-3-yl}benzamide] as the molecule, how does the IC50 read?
A: 75.3 nM

Q: `CCc1cc(NCCC(F)(F)F)c2ncc(-c3ccc(C(=O)NC4(C)CC4)c(C)c3)n2c1` [Example 102, 4-{6-Ethyl-8-[(3,3,3-trifluoropropyl)amino]imidazo[1,2-a]pyridin-3-yl}-2-methyl-N-(1-methylcyclopropyl)benzamide] was tested. Which IC50 did it give?
A: 131 nM

Q: For `CCc1cc(NCCC(F)(F)F)c2ncc(-c3ccc(C(=O)N[C@H]4C[C@@H]4F)c(C)c3)n2c1` (relative stereo) [Example 104, 4-{6-Ethyl-8-[(3,3,3-trifluoropropyl)amino]imidazo[1,2-a]pyridin-3-yl}-N-[rel-(1S,2S)-2-fluorocyclopropyl]-2-methylbenzamide], which IC50 is on record?
A: 65.3 nM

Q: How did the IC50 turn out when `Cc1cc(F)cc(Sc2cc(NCCC(F)(F)F)c3ncc(-c4ccc(C(=O)NC5CC5)c(C)c4)n3c2)c1` [Example 3-1, N-cyclopropyl-4-{6-[(3-fluoro-5-methylphenyl)sulfanyl]-8-[(3,3,3-trifluoropropyl)amino]imidazo[1,2-a]pyridin-3-yl}-2-methylbenzamide] was run?
A: 0.6 nM

Q: `Cc1cc(-c2cnc3c(NCCC(F)(F)F)cc(Oc4ccccc4)cn23)ccc1C(=O)NC1(C)CC1` [Example 58, 2-Methyl-N-(1-methylcyclopropyl)-4-{6-phenoxy-8-[(3,3,3-trifluoropropyl)amino]imidazo[1,2-a]pyridin-3-yl}benzamide] was tested. Which IC50 did it give?
A: 5.7 nM

Q: How did the IC50 turn out when `Cc1cc(-c2cnc3c(NCCC(F)(F)F)cc(Oc4cc(F)ccc4O)cn23)ccc1C(=O)NC1CC1` [Example 175, N-cyclopropyl-4-{6-(5-fluoro-2-hydroxyphenoxy)-8-[(3,3,3-trifluoropropyl)amino]imidazo[1,2-a]pyridin-3-yl}-2-methylbenzamide] was run?
A: 3 nM

Q: `Cc1cc(-c2cnc3c(NCCC(F)(F)F)cc(Oc4cccc(F)c4)cn23)ccc1C(=O)NC1CC1F` (single isomer, unassigned) [Example 12 (A or ent.-A), N-{[(1S,2S) or (1R,2R)]-2-fluorocyclopropyl}-4-{6-(3-fluorophenoxy)-8-[(3,3,3-trifluoropropyl)amino]imidazo[1,2-a]pyridin-3-yl}-2-methylbenzamide] was tested. Which IC50 did it give?
A: 0.8 nM

Q: For “N-cyclopropyl-4-{8-[(2,2-difluoroethyl)amino]-6-(2,5-difluorophenoxy)imidazo[1,2-a]pyridin-3-yl}-2-methylbenzamide [Example 166]”, which IC50 is on record?
A: 4.6 nM

Q: With `COc1ccc(Oc2cc(NCC(F)F)c3ncc(-c4ccc(C(=O)NC5CC5)c(C)c4)n3c2)cc1` [Example 162, N-cyclopropyl-4-{8-[(2,2-difluoroethyl)amino]-6-(4-methoxyphenoxy)imidazo[1,2-a]pyridin-3-yl}-2-methylbenzamide] as the molecule, how does the IC50 read?
A: 8.6 nM

Q: With `CNC(=O)c1ccc(-c2cnc3c(NCCC(F)(F)F)cc(-c4ccc(C(=O)OC)c(C)c4)cn23)cc1C` [Example 140, Methyl 2-methyl-4-{3-[3-methyl-4-(methylcarbamoyl)phenyl]-8-[(3,3,3-trifluoropropyl)amino]imidazo[1,2-a]pyridin-6-yl}benzoate] as the molecule, how does the IC50 read?
A: 36.1 nM

Q: `Cc1cc(-c2cnc3c(NCCC(F)(F)F)cc(-c4ccc(C(=O)NC5(C)CC5)c(C)c4)cn23)ccc1C(=O)NC1CC1` [Example 149, 4-{3-[4-(cyclopropylcarbamoyl)-3-methylphenyl]-8-[(3,3,3-trifluoropropyl)amino]imidazo[1,2-a]pyridin-6-yl}-2-methyl-N-(1-methylcyclopropyl)benzamide] was tested. Which IC50 did it give?
A: 3 nM

Q: How did the IC50 turn out when `CNC(=O)c1ccc(-c2cnc3c(NCCC(F)(F)F)cc(C#CCO)cn23)cc1C` [Example 20, 4-{6-(3-hydroxyprop-1-yn-1-yl)-8-[(3,3,3-trifluoropropyl)amino]imidazo[1,2-a]pyridin-3-yl}-N,2-dimethylbenzamide] was run?
A: 41.1 nM

Q: `Cc1ccc(F)cc1Oc1cc(NCCC(F)(F)F)c2ncc(-c3ccc(C(=O)NC4CC4)c(C)c3)n2c1` [Example 19, N-cyclopropyl-4-{6-(5-fluoro-2-methylphenoxy)-8-[(3,3,3-trifluoropropyl)amino]imidazo[1,2-a]pyridin-3-yl}-2-methylbenzamide] was tested. Which IC50 did it give?
A: 0.7 nM

Q: For `CCc1cc(NCCC(F)(F)F)c2ncc(-c3ccc(C(=O)NC4(C#N)CC4)c(C)c3)n2c1` [Example 103], which IC50 is on record?
A: 156 nM

Q: With `Cc1cc(-c2cnc3c(NCCC(F)(F)F)cc(Oc4cccc(Cl)c4)cn23)ccc1C(=O)NC1(C)CC1` [Example 36, 4-{6-(3-chlorophenoxy)-8-[(3,3,3-trifluoropropyl)amino]imidazo[1,2-a]pyridin-3-yl}-2-methyl-N-(1-methylcyclopropyl)benzamide] as the molecule, how does the IC50 read?
A: 11.1 nM
